Results reported in patent US20100278751A1, “RADIOLABELED 2-AMINO-4-ALKYL-6-(HALOALKYL)PYRIDINE COMPOUNDS AND THEIR USE IN DIAGNOSTIC IMAGING” (WASHINGTON UNIVERSITY, priority 2009, published 2010).
Read-outs that look alike come from different tables or passages of the source. One block for each molecule: values may come before it.

Experiments:
iNOS [1] = biological target: T1, iNOS (Homo sapiens, UniProt P35228); assay: iNOS activity, nitric oxide synthase screening kit (IC50); assay type: biochemical
T1 sequence (P35228 whole entry): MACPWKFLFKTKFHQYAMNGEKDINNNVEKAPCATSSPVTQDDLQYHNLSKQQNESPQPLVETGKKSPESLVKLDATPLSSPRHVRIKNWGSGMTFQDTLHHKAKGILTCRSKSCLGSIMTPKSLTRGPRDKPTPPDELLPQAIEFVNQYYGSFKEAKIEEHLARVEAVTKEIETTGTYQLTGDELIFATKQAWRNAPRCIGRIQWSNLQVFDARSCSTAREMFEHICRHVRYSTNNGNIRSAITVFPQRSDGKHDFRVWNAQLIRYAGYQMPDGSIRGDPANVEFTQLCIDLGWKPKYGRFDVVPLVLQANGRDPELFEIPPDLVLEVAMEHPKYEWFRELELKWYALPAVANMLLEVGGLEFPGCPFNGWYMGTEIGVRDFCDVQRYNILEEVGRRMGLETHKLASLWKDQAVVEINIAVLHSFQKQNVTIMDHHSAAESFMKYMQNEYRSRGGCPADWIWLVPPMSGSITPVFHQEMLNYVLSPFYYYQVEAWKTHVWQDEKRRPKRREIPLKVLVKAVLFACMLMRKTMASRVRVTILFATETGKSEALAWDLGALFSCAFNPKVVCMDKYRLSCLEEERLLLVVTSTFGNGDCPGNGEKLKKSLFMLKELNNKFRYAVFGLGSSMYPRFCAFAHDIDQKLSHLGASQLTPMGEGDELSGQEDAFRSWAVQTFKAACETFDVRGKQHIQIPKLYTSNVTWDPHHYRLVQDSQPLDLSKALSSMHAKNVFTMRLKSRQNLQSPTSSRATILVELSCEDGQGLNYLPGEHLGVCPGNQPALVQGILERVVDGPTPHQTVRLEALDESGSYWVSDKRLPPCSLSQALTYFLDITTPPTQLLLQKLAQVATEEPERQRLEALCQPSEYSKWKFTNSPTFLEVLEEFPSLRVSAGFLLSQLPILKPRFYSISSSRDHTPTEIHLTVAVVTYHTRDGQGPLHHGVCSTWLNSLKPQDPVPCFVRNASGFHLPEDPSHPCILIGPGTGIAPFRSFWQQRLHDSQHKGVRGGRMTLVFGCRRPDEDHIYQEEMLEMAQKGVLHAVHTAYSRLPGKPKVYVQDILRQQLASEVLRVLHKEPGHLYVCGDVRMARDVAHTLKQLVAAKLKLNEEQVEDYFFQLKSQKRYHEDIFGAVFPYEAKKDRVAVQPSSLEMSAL

iNOS [2] = biological target: T1, iNOS; details: cited from earlier work
[3] = Biodistribution in control vs. LPS treated mice; assay type: in vivo, C57BL/6 mice
Description: This example describes the results of in vivo studies on the biodistribution of iNOS inhibitors. The biodistribution studies were performed in mature male C57BL/6 mice. One group of mice was treated with bacterial lipopolysaccharide (LPS) (10 mg/kg, administered intravenously) to induce iNOS expression, and a control group was left untreated.

iNOS [4] = biological target: T2, iNOS (Mus musculus, UniProt P29477); assay: microPET imaging study in LPS-treated and control mice; assay type: in vivo; details: LPS intratracheally treated mouse vs control mouse
T2 construct: from tissue
Description: Two mice, one intratracheally treated with LPS, and a control mouse, were injected with [^18F]compound 14. […] This difference in tracer accumulation is consistent with the difference in accumulation of iNOS described between LPS-treated and control mice in the preceeding examples.

[5] = In vivo stability (percent parent compound in plasma/blood) in rats; design: species or system Sprague-Dawley rats
Description: Adult male Sprague-Dawley rats were injected with [^18F]compound 14, and at 5 and 30 minutes post injection, plasma samples were obtained. Supernatants from the plasma samples were analyzed by silica gel radio-TLC and reversed phase HPLC. After 30 minutes, the percent parent compound was only 20.2%. Additionally, within 5 minutes post injection, only 40.3% of the activity in the blood was [^18F]compound 14, which was confirmed by HPLC co-elution with non-radioactive compound 14. According to the HPLC analysis, the major metabolite, constituting 50% of the activity in blood at 5 minutes post injection, was very polar but was not free [^18F] fluoride. This observation is also consistent with the low bone uptake reported in biodistribution studies.

[6] = In vitro stability in heparinized rat whole blood; assay type: in vitro ADME, Sprague-Dawley rat; details: 37° C.
Description: The in vitro stability of [^18F]compound 14 was tested by using heparinized blood from an adult male Sprague-Dawley rat. [^18F]compound 14 was relatively stable in the whole blood for 2 h at 37° C. At 1 h, approximately 80% of the activity recovered from lysed whole blood was observed as [^18F]compound 14, and at 2 h, approximately 75% of the recovered activity was still in the form of [^18F]compound 14.

eNOS = eNOS (Homo sapiens, UniProt P29474); assay: eNOS selectivity, nitric oxide synthase screening kit (IC50); assay type: biochemical
Description: (§1) All assays were performed using the nitric oxide synthase screening kit (GE Healthcare Biosciences Corp., Piscataway, N.J.) following the manufacturer's protocols.

nNOS = nNOS (Homo sapiens, UniProt P29475); assay: nNOS selectivity, nitric oxide synthase screening kit (IC50); assay type: biochemical
Description: as §1

iNOS [7] = biological target: T2, iNOS; assay: Blocking studies of tracer uptake in LPS-treated mice; assay type: in vivo
Description: This example describes blocking studies. […] P., et al., J. Biol. Chem. 272: 4959-4963, 1997). […] At 1 h post injection, % ID in lung was determined.

[8] = iNOS, read-out: IC50 of tested compounds
[9] = iNOS, read-out: IC50 (standards for measuring IC50)
[10] = measured against SEITU, L-NIL and 2-AP as standards, read-out: IC50 for iNOS
[11] = read-out: Selectivity (IC50) iNOS

SMILES: Cc1cc(N)nc(CC(C)CCF)c1 (stereo not shown) [DZ(IV)-93]
IC50 (iNOS [1]; [8]): 731 ± 87 nM

IC50 (iNOS [1]; [9]): 108 ± 34.5 nM
SMILES: Nc1ncc2[nH]cnc2n1 [Compound 2-AP, 2-aminopurine, reference compound]
IC50 (iNOS [2]; reported value for standards): 170 nM

Biodistribution Blood ([3]; Control mice, 5 min): 2.37 ± 0.18 % ID/g
Biodistribution Bone ([3]; Control mice, 5 min): 1.52 ± 0.36 % ID/g
Biodistribution Brain ([3]; Control mice, 5 min): 1.60 ± 0.17 % ID/g
Biodistribution Heart ([3]; Control mice, 5 min): 1.50 ± 0.12 % ID/g
Biodistribution Kidney ([3]; Control mice, 5 min): 20.6 ± 2.4 % ID/g
Biodistribution Liver ([3]; Control mice, 5 min): 33.2 ± 3.3 % ID/g
Biodistribution Lung ([3]; Control mice, 5 min): 3.33 ± 0.28 % ID/g
Biodistribution Muscle ([3]; Control mice, 5 min): 1.25 ± 0.06 % ID/g
Biodistribution Blood ([3]; Control mice, 30 min): 1.22 ± 0.16 % ID/g
Biodistribution Bone ([3]; Control mice, 30 min): 2.26 ± 0.55 % ID/g
Biodistribution Brain ([3]; Control mice, 30 min): 0.28 ± 0.02 % ID/g
Biodistribution Heart ([3]; Control mice, 30 min): 0.60 ± 0.05 % ID/g
Biodistribution Kidney ([3]; Control mice, 30 min): 7.30 ± 0.66 % ID/g
Biodistribution Liver ([3]; Control mice, 30 min): 10.7 ± 0.3 % ID/g
Biodistribution Lung ([3]; Control mice, 30 min): 1.14 ± 0.13 % ID/g
Biodistribution Muscle ([3]; Control mice, 30 min): 0.71 ± 0.31 % ID/g
Biodistribution Blood ([3]; Control mice, 1 h): 0.31 ± 0.04 % ID/g
Biodistribution Bone ([3]; Control mice, 1 h): 2.57 ± 0.64 % ID/g
Biodistribution Brain ([3]; Control mice, 1 h): 0.11 ± 0.02 % ID/g
Biodistribution Heart ([3]; Control mice, 1 h): 0.19 ± 0.02 % ID/g
Biodistribution Kidney ([3]; Control mice, 1 h): 2.20 ± 0.25 % ID/g
Biodistribution Liver ([3]; Control mice, 1 h): 2.59 ± 0.49 % ID/g
Biodistribution Lung ([3]; Control mice, 1 h): 0.31 ± 0.06 % ID/g
Biodistribution Muscle ([3]; Control mice, 1 h): 0.27 ± 0.18 % ID/g
Biodistribution Blood ([3]; Control mice, 2 h): 0.27 ± 0.22 % ID/g
Biodistribution Bone ([3]; Control mice, 2 h): 5.59 ± 4.20 % ID/g
Biodistribution Brain ([3]; Control mice, 2 h): 0.07 ± 0.03 % ID/g
Biodistribution Heart ([3]; Control mice, 2 h): 0.08 ± 0.02 % ID/g
Biodistribution Kidney ([3]; Control mice, 2 h): 0.80 ± 0.27 % ID/g
Biodistribution Liver ([3]; Control mice, 2 h): 0.74 ± 0.23 % ID/g
Biodistribution Lung ([3]; Control mice, 2 h): 0.15 ± 0.03 % ID/g
Biodistribution Muscle ([3]; Control mice, 2 h): 0.34 ± 0.27 % ID/g
Biodistribution Blood ([3]; LPS treated mice, 5 min): 3.69 ± 0.38 % ID/g
Biodistribution Bone ([3]; LPS treated mice, 5 min): 1.59 ± 0.15 % ID/g
Biodistribution Brain ([3]; LPS treated mice, 5 min): 1.81 ± 0.09 % ID/g
Biodistribution Heart ([3]; LPS treated mice, 5 min): 2.03 ± 0.06 % ID/g
Biodistribution Kidney ([3]; LPS treated mice, 5 min): 26.7 ± 4.1 % ID/g
Biodistribution Liver ([3]; LPS treated mice, 5 min): 24.6 ± 3.1 % ID/g
Biodistribution Lung ([3]; LPS treated mice, 5 min): 4.32 ± 0.32 % ID/g
Biodistribution Muscle ([3]; LPS treated mice, 5 min): 1.64 ± 0.09 % ID/g
Biodistribution Blood ([3]; LPS treated mice, 30 min): 2.09 ± 0.35 % ID/g
Biodistribution Bone ([3]; LPS treated mice, 30 min): 3.70 ± 1.20 % ID/g
Biodistribution Brain ([3]; LPS treated mice, 30 min): 0.52 ± 0.15 % ID/g
Biodistribution Heart ([3]; LPS treated mice, 30 min): 1.02 ± 0.16 % ID/g
Biodistribution Kidney ([3]; LPS treated mice, 30 min): 10.9 ± 2.8 % ID/g
Biodistribution Liver ([3]; LPS treated mice, 30 min): 7.06 ± 0.28 % ID/g
Biodistribution Lung ([3]; LPS treated mice, 30 min): 1.84 ± 0.27 % ID/g
Biodistribution Muscle ([3]; LPS treated mice, 30 min): 1.06 ± 0.40 % ID/g
Biodistribution Blood ([3]; LPS treated mice, 1 h): 0.86 ± 0.09 % ID/g
Biodistribution Bone ([3]; LPS treated mice, 1 h): 4.30 ± 0.90 % ID/g
Biodistribution Brain ([3]; LPS treated mice, 1 h): 0.19 ± 0.03 % ID/g
Biodistribution Heart ([3]; LPS treated mice, 1 h): 0.41 ± 0.10 % ID/g
Biodistribution Kidney ([3]; LPS treated mice, 1 h): 3.95 ± 0.53 % ID/g
Biodistribution Liver ([3]; LPS treated mice, 1 h): 2.63 ± 0.52 % ID/g
Biodistribution Lung ([3]; LPS treated mice, 1 h): 0.73 ± 0.17 % ID/g
Biodistribution Muscle ([3]; LPS treated mice, 1 h): 0.78 ± 0.47 % ID/g
Biodistribution Blood ([3]; LPS treated mice, 2 h): 0.23 ± 0.05 % ID/g
Biodistribution Bone ([3]; LPS treated mice, 2 h): 3.77 ± 1.41 % ID/g
Biodistribution Brain ([3]; LPS treated mice, 2 h): 0.07 ± 0.03 % ID/g
Biodistribution Heart ([3]; LPS treated mice, 2 h): 0.12 ± 0.04 % ID/g
Biodistribution Kidney ([3]; LPS treated mice, 2 h): 0.91 ± 0.63 % ID/g
Biodistribution Liver ([3]; LPS treated mice, 2 h): 0.42 ± 0.15 % ID/g
Biodistribution Lung ([3]; LPS treated mice, 2 h): 0.18 ± 0.09 % ID/g
Biodistribution Muscle ([3]; LPS treated mice, 2 h): 0.23 ± 0.13 % ID/g
activity in the blood that was parent compound ([5]; 5 minutes post injection): 40.3%
major (very polar) metabolite, share of the activity in blood ([5]; 5 minutes post injection, HPLC): 50%
percent parent compound ([5]; plasma, 30 minutes post injection): 20.2%
activity recovered from lysed whole blood observed as parent ([6]; 1 h): approximately 80%
recovered activity still in the form of parent ([6]; 2 h): approximately 75%
SMILES: Cc1cc(N)nc(CC(C)[18F])c1 (stereo not shown) [[^18F]compound 14]
tracer uptake, LPS-treated vs non-treated mice ([3]; LPS 10 mg/kg intravenously, Table 4 and FIG. 11): greater uptake
tracer accumulation in lungs (microPET) (iNOS [4]): accumulated in the lungs of the LPS-treated mouse, but not in the control mouse

IC50 (iNOS [1]; [9]): 30.5 ± 4.6 nM
SMILES: CCSC(=N)N [SEITU, S-ethylisothiourea, reference compound]
Ki (iNOS [2]; reported value): 32 nM

SMILES: Cc1cc(N)nc(CCCCF)c1 [DZ(IV)-120]
IC50 (iNOS [1]; [8]): 170 ± 26.5 nM

IC50 (iNOS [1]; [8]): 282 ± 48.6 nM
SMILES: C/C=C/c1cc(C)cc(N)n1 [DZ(III)-73]

IC50 (iNOS [1]; [8]): 685 ± 127 nM
SMILES: CC(C)=Cc1cc(C)cc(N)n1 [Compound 25]

IC50 (iNOS [1]; [8]): 1780 ± 395 nM
SMILES: Cc1cc(N)nc(CC(C)O)c1 (stereo not shown) [DZ(III)-77/Compound 14]

IC50 (eNOS): 1520 ± 300 nM
IC50 (nNOS): 493 ± 80.8 nM
IC50 (iNOS [1]; [8]): 54.3 ± 8.9 nM
IC50 (iNOS [1]; [10]): < 190 nM
IC50 (iNOS [1]; [11]): 54.3 ± 8.9 nM
SMILES: Cc1cc(N)nc(CC(C)F)c1 (stereo not shown) [Compound 14]

tracer uptake in the lungs and blood blocked (iNOS [7]; blocker 5 mg/kg i.v. immediately before [18F]compound 14, 1 h post injection): 32%
SMILES: CC(=N)NCc1cccc(CN)c1 [1400 W, N-(3-(aminomethyl)benzyl)acetamidine]

SMILES: Cc1cc(N)nc(CCCF)c1 [Compound 52]
IC50 (eNOS): 1430 ± 158 nM
IC50 (nNOS): 514 ± 83.3 nM
IC50 (iNOS [1]; [8]): 57.6 ± 5.3 nM
IC50 (iNOS [1]; [10]): < 190 nM
IC50 (iNOS [1]; [11]): 57.6 ± 5.3 nM

blocking of increased uptake of [18F]compound 14 (iNOS [7]; blocker 10 mg/kg intravenously): failed to block
SMILES: Cc1ccnc(N)c1 [2-amino-4-methylpyridine]

IC50 (iNOS [1]; [8]): 193 ± 38 nM
melting point: 59 to 61 °C
SMILES: Cc1cc(N)nc(CC(C)C)c1 [Compound 11]
